Laboratory results as given in US7994140B2, “Classes of compounds that interact with GPCRs” (Alchemia Limited, priority 2002, dated 2011).

How the values were obtained:
[1] = molecular target: T1, MC4 (Homo sapiens, UniProt P32245); test: GPCR radioligand binding (RLB) assay, melanocortin MC4, [125I]NDP-αMSH; settings: 10 micromolar compound; recombinant human receptor membranes (HEK 293)
T1 construct: purchased Perkin Elmer BioSignal; host or cells: HEK 293
Outline: (§1)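 Membranes from HEK 293 cells expressing the recombinant human receptor were equilibrated with [125I]SST-14 (SST5) or [125I]NDP-αMSH (MC4), then compound added for an optimized incubation. Bound ligand separated by filtration on PEI-coated glass fiber and counted by liquid scintillation.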

[2] = molecular target: T2, SST5 (Homo sapiens, UniProt P35346); test: GPCR radioligand binding (RLB) assay, somatostatin SST5, [125I]SST-14; settings: 10 micromolar compound; recombinant human receptor membranes (HEK 293)
T2 construct: purchased Perkin Elmer BioSignal; host or cells: HEK 293
Outline: as §1

T2 sequence (P35346 whole entry): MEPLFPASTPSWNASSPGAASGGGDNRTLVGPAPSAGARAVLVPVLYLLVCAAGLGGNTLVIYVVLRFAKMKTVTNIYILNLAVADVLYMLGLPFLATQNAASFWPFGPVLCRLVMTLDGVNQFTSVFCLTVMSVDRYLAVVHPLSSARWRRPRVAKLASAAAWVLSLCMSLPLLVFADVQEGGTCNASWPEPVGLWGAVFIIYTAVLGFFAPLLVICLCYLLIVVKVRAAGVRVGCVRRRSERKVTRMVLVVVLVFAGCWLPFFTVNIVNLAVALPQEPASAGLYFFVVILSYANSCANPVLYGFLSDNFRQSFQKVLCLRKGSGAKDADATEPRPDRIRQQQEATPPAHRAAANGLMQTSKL
T1 sequence (P32245 whole entry): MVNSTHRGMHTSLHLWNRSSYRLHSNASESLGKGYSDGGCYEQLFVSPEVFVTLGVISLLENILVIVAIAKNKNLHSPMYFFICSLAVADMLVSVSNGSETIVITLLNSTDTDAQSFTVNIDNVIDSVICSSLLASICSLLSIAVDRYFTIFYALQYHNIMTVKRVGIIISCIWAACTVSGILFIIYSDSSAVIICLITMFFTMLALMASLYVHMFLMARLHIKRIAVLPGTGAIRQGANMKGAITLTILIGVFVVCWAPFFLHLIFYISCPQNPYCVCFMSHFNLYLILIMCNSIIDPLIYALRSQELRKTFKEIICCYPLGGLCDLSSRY

Structure (SMILES)	MC4 inhibition at 10 micromolar [1]	SST5 inhibition at 10 micromolar [2]
COC[C@H]1OC(OCc2ccc(Cl)cc2)[C@H](NC(=O)CCNC(=N)N)[C@@H](OCc2ccc3ccccc3c2)[C@@H]1O (some centres unmarked) [Compound 14]	+ (Indicates inhibition greater than . . . 50%)	+ (Indicates inhibition greater than . . . 50%)
COC[C@H]1OC(OCc2ccc(Cl)cc2)[C@H](NC(=O)CCCNC(=N)N)[C@@H](OCc2ccc3ccccc3c2)[C@@H]1O (some centres unmarked) [Compound 15]	+ (Indicates inhibition greater than . . . 50%)	+ (Indicates inhibition greater than . . . 50%)
COC[C@H]1OC(OCc2ccc(-c3ccccc3)cc2)[C@H](NC(=O)CCCN)[C@@H](OCc2ccc(-c3ccccc3)cc2)[C@@H]1O (some centres unmarked) [Compound 28]	+ (Indicates inhibition greater than . . . 50%)	+ (Indicates inhibition greater than . . . 50%)
COC[C@H]1OC(OCc2ccc(-c3ccccc3)cc2)[C@H](NC(=O)CCCNC(=N)N)[C@@H](OCc2ccc(-c3ccccc3)cc2)[C@@H]1O (some centres unmarked) [Compound 29]	+ (Indicates inhibition greater than . . . 50%)	+ (Indicates inhibition greater than . . . 50%)
COC[C@H]1OC(OCc2ccc(-c3ccccc3)cc2)[C@H](NC(=O)CCCNC(=N)N)[C@@H](OCc2ccc3ccccc3c2)[C@@H]1O (some centres unmarked) [Compound 30]	+ (Indicates inhibition greater than . . . 50%)	+ (Indicates inhibition greater than . . . 50%)
COC[C@H]1OC(OCc2ccc(-c3ccccc3)cc2)[C@H](NC(=O)CCNC(=N)N)[C@@H](OCc2ccc(Cl)cc2)[C@@H]1O (some centres unmarked) [Compound 32]	+ (Indicates inhibition greater than . . . 50%)	+ (Indicates inhibition greater than . . . 50%)
COC[C@H]1OC(OCc2ccc(-c3ccccc3)cc2)[C@H](NC(=O)CCCN)[C@@H](OCc2ccc(Cl)cc2)[C@@H]1O (some centres unmarked) [Compound 33]	+ (Indicates inhibition greater than . . . 50%)	+ (Indicates inhibition greater than . . . 50%)
COC[C@H]1OC(OCc2ccc(-c3ccccc3)cc2)[C@H](NC(=O)CCCNC(=N)N)[C@@H](OCc2ccc(Cl)cc2)[C@@H]1O (some centres unmarked) [Compound 34]	+ (Indicates inhibition greater than . . . 50%)	+ (Indicates inhibition greater than . . . 50%)
COC[C@H]1OC(OCc2ccc3ccccc3c2)[C@H](NC(=O)CNC(=N)N)[C@@H](OCc2ccc(-c3ccccc3)cc2)[C@@H]1O (some centres unmarked) [Compound 35]	+ (Indicates inhibition greater than . . . 50%)	+ (Indicates inhibition greater than . . . 50%)
COC[C@H]1OC(OCc2ccc3ccccc3c2)[C@H](NC(=O)CCNC(=N)N)[C@@H](OCc2ccc(-c3ccccc3)cc2)[C@@H]1O (some centres unmarked) [Compound 36]	+ (Indicates inhibition greater than . . . 50%)	+ (Indicates inhibition greater than . . . 50%)
COC[C@H]1OC(OCc2ccc3ccccc3c2)[C@H](NC(=O)CCCN)[C@@H](OCc2ccc(-c3ccccc3)cc2)[C@@H]1O (some centres unmarked) [Compound 37]	+ (Indicates inhibition greater than . . . 50%)	+ (Indicates inhibition greater than . . . 50%)
COC[C@H]1OC(OCc2ccc3ccccc3c2)[C@H](NC(=O)CCNC(=N)N)[C@@H](OCc2ccc3ccccc3c2)[C@@H]1O (some centres unmarked) [Compound 38]	+ (Indicates inhibition greater than . . . 50%)	+ (Indicates inhibition greater than . . . 50%)
COC[C@H]1OC(OCc2ccc3ccccc3c2)[C@H](NC(=O)CCCN)[C@@H](OCc2ccc3ccccc3c2)[C@@H]1O (some centres unmarked) [Compound 39]	+ (Indicates inhibition greater than . . . 50%)	+ (Indicates inhibition greater than . . . 50%)
COC[C@H]1OC(OCc2ccc3ccccc3c2)[C@H](NC(=O)CCCNC(=N)N)[C@@H](OCc2ccc3ccccc3c2)[C@@H]1O (some centres unmarked) [Compound 40]	+ (Indicates inhibition greater than . . . 50%)	+ (Indicates inhibition greater than . . . 50%)
COC[C@H]1OC(OCc2ccc3ccccc3c2)[C@H](NC(=O)CCCNC(=N)N)[C@@H](OCc2ccc(Cl)cc2)[C@@H]1O (some centres unmarked) [Compound 43]	+ (Indicates inhibition greater than . . . 50%)	+ (Indicates inhibition greater than . . . 50%)
COC[C@H]1OC(OCc2ccc(Cl)cc2)[C@H](NC(=O)CCCNC(=N)N)[C@@H](OCc2ccc(-c3ccccc3)cc2)[C@@H]1O (some centres unmarked) [Compound 45]	+ (Indicates inhibition greater than . . . 50%)	+ (Indicates inhibition greater than . . . 50%)
COC[C@H]1OC(OCc2ccc(Cl)cc2)[C@H](NC(=O)CCCN)[C@@H](OCc2ccc3ccccc3c2)[C@@H]1O (some centres unmarked) [Compound 46]	+ (Indicates inhibition greater than . . . 50%)	+ (Indicates inhibition greater than . . . 50%)

Structure (SMILES)	MC4 inhibition at 10 micromolar [1]	SST5 inhibition at 10 micromolar [2]
COC[C@H]1OC(OCCc2ccccc2)[C@H](NC(=O)CCCNC(=N)N)[C@@H](OCc2ccc(-c3ccccc3)cc2)[C@@H]1O (some centres unmarked) [Compound 49]	+ (Indicates inhibition greater than . . . 50%)	+ (Indicates inhibition greater than . . . 50%)
COC[C@H]1OC(OCc2ccc(-c3ccccc3)cc2)[C@H](NC(=O)CCCN)[C@@H](OCc2ccc(-c3ccccc3)cc2)[C@@H]1O (some centres unmarked) [Compound 53]	+ (Indicates inhibition greater than . . . 50%)	+ (Indicates inhibition greater than . . . 50%)
CO[C@H]1[C@H](O)[C@@H](COCc2ccc(-c3ccccc3)cc2)OC(OCc2ccc(-c3ccccc3)cc2)[C@@H]1NC(=O)CNC(=N)N (some centres unmarked) [Compound 56]	+ (Indicates inhibition greater than . . . 50%)	+ (Indicates inhibition greater than . . . 50%)
CO[C@H]1[C@H](O)[C@@H](COCc2ccc(-c3ccccc3)cc2)OC(OCc2ccc(-c3ccccc3)cc2)[C@@H]1NC(=O)CCNC(=N)N (some centres unmarked) [Compound 57]	+ (Indicates inhibition greater than . . . 50%)	+ (Indicates inhibition greater than . . . 50%)
COC1C(O)C(COCc2ccc3ccccc3c2)OC(OCc2ccc(-c3ccccc3)cc2)C1NC(=O)CCCN (centres unmarked) [Compound 61]	+ (Indicates inhibition greater than . . . 50%)	+ (Indicates inhibition greater than . . . 50%)
COC1C(O)C(COCc2ccc(-c3ccccc3)cc2)OC(OCc2ccc3ccccc3c2)C1NC(=O)CCCN (centres unmarked) [Compound 69]	+ (Indicates inhibition greater than . . . 50%)	+ (Indicates inhibition greater than . . . 50%)
COC1C(O)C(COCc2ccc3ccccc3c2)OC(OCc2ccc3ccccc3c2)C1NC(=O)CCCN (centres unmarked) [Compound 73]	+ (Indicates inhibition greater than . . . 50%)	+ (Indicates inhibition greater than . . . 50%)
COC1C(O)C(COCc2ccc(Cl)cc2)OC(OCc2ccc3ccccc3c2)C1NC(=O)CCCN (centres unmarked) [Compound 77]	+ (Indicates inhibition greater than . . . 50%)	+ (Indicates inhibition greater than . . . 50%)
COC1C(O)C(COCc2ccc3ccccc3c2)OC(OCc2ccccc2)C1NC(=O)CNC(=N)N (centres unmarked) [Compound 80]	+ (Indicates inhibition greater than . . . 50%)	+ (Indicates inhibition greater than . . . 50%)
COC1C(O)C(COCc2ccc(-c3ccccc3)cc2)OC(OCc2ccc(Cl)cc2)C1NC(=O)CCNC(=N)N (centres unmarked) [Compound 84]	+ (Indicates inhibition greater than . . . 50%)	+ (Indicates inhibition greater than . . . 50%)
COC1C(O)C(COCc2ccc(-c3ccccc3)cc2)OC(OCc2ccc(Cl)cc2)C1NC(=O)CCCNC(=N)N (centres unmarked) [Compound 86]	+ (Indicates inhibition greater than . . . 50%)	+ (Indicates inhibition greater than . . . 50%)
COC1C(O)C(COCc2ccc3ccccc3c2)OC(OCc2ccc(Cl)cc2)C1NC(=O)CNC(=N)N (centres unmarked) [Compound 87]	+ (Indicates inhibition greater than . . . 50%)	+ (Indicates inhibition greater than . . . 50%)
COC1C(O)C(COCc2ccc3ccccc3c2)OC(OCc2ccc(Cl)cc2)C1NC(=O)CCNC(=N)N (centres unmarked) [Compound 88]	+ (Indicates inhibition greater than . . . 50%)	+ (Indicates inhibition greater than . . . 50%)
COC1C(O)C(COCc2ccc3ccccc3c2)OC(OCc2ccc(Cl)cc2)C1NC(=O)CCCN (centres unmarked) [Compound 89]	+ (Indicates inhibition greater than . . . 50%)	+ (Indicates inhibition greater than . . . 50%)
COC1C(O)C(COCc2ccc3ccccc3c2)OC(OCc2ccc(Cl)cc2)C1NC(=O)CCCNC(=N)N (centres unmarked) [Compound 90]	+ (Indicates inhibition greater than . . . 50%)	+ (Indicates inhibition greater than . . . 50%)
CO[C@H]1[C@H](O)[C@@H](COCc2ccc(Cl)cc2)OC(OCc2ccc(Cl)cc2)[C@@H]1NC(=O)CCCN (some centres unmarked) [Compound 94]	+ (Indicates inhibition greater than . . . 50%)	+ (Indicates inhibition greater than . . . 50%)
CO[C@H]1[C@H](O)[C@@H](COCc2ccc(-c3ccccc3)cc2)OC(OCCc2ccccc2)[C@@H]1NC(=O)CCCN (some centres unmarked) [Compound 98]	+ (Indicates inhibition greater than . . . 50%)	+ (Indicates inhibition greater than . . . 50%)
